The source of these data is patent US20230322717A1, “SOLID FORM OF PYRAZINE SUBSTITUTED NICOTINAMIDE, AND PREPARATION AND USE THEREOF” (Shenzhen TargetRx, Inc., priority 2020, published 2023).

Common to all, as to type: physicochemical
The nature of data set [1]: Solubility study of the starting material (the crystal form I of compound A) in different solvents. The procedure: About 2 mg of the starting material was weighed and added into a sample bottle, and different solvents were added respectively, until the starting material was dissolved.
The nature of data set [2]: Stability study of the crystal form VI of compound A (high temperature, high humidity, light).
Data set [3] is described as follows: Dynamic moisture adsorption and desorption analysis (DVS). Particulars: for crystal form after DVS test (XRPD): before and after DVS test; for hygroscopicity (DVS): moisture range 0% to 90%. As for the experimental part:
The instrument model used for dynamic moisture adsorption and desorption analysis was IGA Sorp (Hidentity Isochema). The samples were measured in a gradient mode with a moisture range of 0% to 90%, wherein the humidity increment of each gradient was 10%.

Data set [4] can be described thus: Grinding research of crystal forms (XRPD before and after grinding). As to conditions: ground in a mortar at room temperature. From the text: The solid XRPDs before and after grinding were compared.
Data set [5] can be described thus: Cooling crystallization: solubility of the crystal form I of compound A in heated solvents. Particulars: organic solvent or mixture, thermodynamic from solid. As for the experimental part: About 30 mg of the crystal form I of compound A was added to different solvents and heated until dissolved. The resulting solution was then slowly cooled to room temperature. PLM and XRPD tests were performed on the resulting solid crystal forms.

Data set [6] can be described thus: Stability study of the crystal form I of compound A and the crystal form I of compound A p-toluenesulfonate (HPLC, XRPD). Particulars: 7 days at 40° C./75% RH and 60° C. As for the experimental part: A certain amount of samples of the crystal form I of compound A and the crystal form I of compound A p-toluenesulfonate (Batch No.: PTSA-A1) were placed in a stability test chamber, and kept at 40° C./75%RH and 60° C. for 7 days, respectively. The samples were tested by HPLC and XRPD at various time points.

Data set [7] is described as follows: Solubility study in SGF, FaSSIF and FeSSIF (HPLC of filtrate, XRPD of solid). Particulars: for solubility compared with the other form / dependence of solubility on pH: 37° C.; for dependence of solubility on pH: FaSSIF, FeSSIF. The procedure: The solubilities of the crystal form I of compound A and the crystal form I of compound A p-toluenesulfonate in SGF (simulated gastric fluid), FaSSIF (fasted state simulated intestinal fluid) and FeSSIF (fed state simulated intestinal fluid) were studied.
The solubilities of samples in SGF, FaSSIF and FeSSIF at 37° C. for 24 hours were determined. 40 mg of the sample was placed in a sample bottle, and 1.5 mL of solvent was added. The mixture was mixed well, and shaken on a shaker at 200 rpm for 24 hours. The suspension was filtered at 0.5, 2 and 24 hours. The filtrate was analyzed by HPLC, and the solid was tested by XRPD.

Data set [8] in a line: Heating of the crystal form by DSC (solvent removal). As to conditions: heated to 150° C. by DSC. The procedure: The instrument model for differential scanning calorimetry analysis was DSC Q200 or Discovery DSC 250 (TA, USA). Samples were accurately weighed and placed in a punctured sample pot for DSC, and the exact mass of the sample was recorded. The samples were heated to the final temperature (e.g. 300° C. or 350° C.) at a ramp rate of 10° C./min.
The collected crystal form I of compound A was subjected to DSC analysis by General method 4. […] The crystal form I of compound A was heated to 150° C. by DSC and then the solvent was removed.

Data set [9] is described as follows: Dissolution study of compound A tablets (solubilizer and glidant study).

≈ marks a conversion by molar mass, not a printed value. Where only a bound is given, the exact number is not on record here.

For orientation: Solubility means the dissolved amount per volume that the medium holds. `O=C(Nc1ccc(OC(F)(F)Cl)cc1)c1cnc(N2CC[C@@H](F)C2)c(-c2cnccn2)c1` [the crystal form I of compound A]: the “Solubility” value in data set [1] (solvent: 2-Butanone) was roughly 73.67 mg/mL (≈ 159 mM); in [1] (solvent: Acetone) it was roughly 77 mg/mL (≈ 166 mM); in [1] (solvent: Acetonitrile) it was roughly 53.25 mg/mL (≈ 115 mM); in data set [1] (solvent: Ethanol), roughly 1.31 mg/mL (≈ 2.82 mM); in data set [1] (solvent: Ethyl Acetate) it was roughly 49.25 mg/mL (≈ 106 mM); in data set [1] (solvent: Isobutanol), roughly 0.73 mg/mL (≈ 1.57 mM). In addition, the “Solubility” value in data set [1] (solvent: Isopropyl Acetate) is given as roughly 22.1 mg/mL (≈ 47.6 mM); in data set [1] (solvent: Isopropyl Alcohol), roughly 0.92 mg/mL (≈ 1.98 mM); in data set [1] (solvent: Methanol), roughly 11.83 mg/mL (≈ 25.5 mM); in data set [1] (solvent: Methyl Tert-Butyl Ether), roughly 2.8 mg/mL (≈ 6.04 mM); in data set [1] (solvent: Tetrahydrofuran) it was roughly 121 mg/mL (≈ 261 mM); in [1] (solvent: Toluene), roughly 1.23 mg/mL (≈ 2.65 mM). Further, the “Solubility (mg/mL)” value in data set [1] (solvent: Water) is given as <<0.55 mg/mL.

With `O=C(Nc1ccc(OC(F)(F)Cl)cc1)c1cnc(N2CC[C@@H](F)C2)c(-c2cnccn2)c1` [crystal form VI of compound A, (R)-N-(4-(chlorodifluoromethoxy)phenyl)-6-(3-fluoropyrrolidin-1-yl)-5-(pyrazin-2-yl)nicotinamide], the “stability (appearance, crystal form and related substances)” value in [2] (10 days under the condition of light) is on record as “stable”; in data set [2] (30 days, 60° C., 25° C./92.5%RH, 40° C./75%RH, and light (visible 4500 Lux, near-UV 85µw/cm^2)), “stable”. Further, the “crystal form after stability test (XRPD)” value in [2] (high temperature, high humidity, high temperature and high humidity, light) is recorded as “not changed”. Besides, the figures for the water absorption in data set [3] (0-80%RH), in [3] (0-90%RH) and in data set [3] (10%RH) were 1.1852%, 1.7452% and 0.1389%, respectively. Moreover, in data set [3], the “crystal form after DVS test (XRPD)” value is given as “not changed”. In data set [4], the “solid form / crystallinity after grinding (XRPD)” value (“solid form / crystallinity” below) is “slightly decreased”.

With `O=C(Nc1ccc(OC(F)(F)Cl)cc1)c1cnc(N2CC[C@@H](F)C2)c(-c2cnccn2)c1` [crystal form VII of compound A, (R)-N-(4-(chlorodifluoromethoxy)phenyl)-6-(3-fluoropyrrolidin-1-yl)-5-(pyrazin-2-yl)nicotinamide], the “solid form / crystallinity” value in [4] (listed as crystal form VII) is recorded as “transformed into amorphous forms”.

Regarding `O=C(Nc1ccc(OC(F)(F)Cl)cc1)c1cnc(N2CC[C@@H](F)C2)c(-c2cnccn2)c1` [crystal form I of compound A, (R)-N-(4-(chlorodifluoromethoxy)phenyl)-6-(3-fluoropyrrolidin-1-yl)-5-(pyrazin-2-yl)nicotinamide], the Solubility in data set [5] (ACN, became clear at 50° C.) stood at 298 mg/mL (≈ 642 mM); in data set [5] (Acetone, became clear at 50° C.), 150 mg/mL (≈ 324 mM); in data set [5] (Isobutanol, became clear at 70° C.) it was 10.1 mg/mL (≈ 21.8 mM); in [5] (MeOH, became clear at 50° C.), 34.1 mg/mL (≈ 73.5 mM). Also, in data set [6], the “crystal form stability (XRPD)” value was “remained unchanged”. For the same molecule, the “solubility compared with the other form” value in data set [7] (FeSSIF vehicle, 0.5 and 2 hours) was “higher solubility than that of the p-toluenesulfonate”. Besides, the “crystal form of the undissolved solid (XRPD)” value in data set [7] (SGF, FaSSIF and FeSSIF for 2 hours) is reported as “changed”. Moreover, the “dependence of solubility on pH” value in [7] (SGF) is “affected by pH value”. Also, the water absorption entry is “about 0.2%” in [3] (0-60%RH), “about 0.7%” in data set [3] (0-80%RH) and “about 1.3%” in data set [3] (0-90%RH). For the same molecule, the “hygroscopicity (DVS)” value in data set [3] is recorded as “slightly hygroscopic”. Moreover, in data set [1] (in tetrahydrofuran, acetone, 2-butanone, acetonitrile and ethyl acetate), the “solubility in solvents (in words)” value is listed as “good solubility”. The “crystal form after heating and solvent removal” value in [8] is recorded as “changed into the crystal form VI”.

Consider `Cc1ccc(S(=O)(=O)O)cc1.O=C(Nc1ccc(OC(F)(F)Cl)cc1)c1cnc(N2CC[C@@H](F)C2)c(-c2cnccn2)c1` [(R)-N-(4-(chlorodifluoromethoxy)phenyl)-6-(3-fluoropyrrolidin-1-yl)-5-(pyrazin-2-yl)nicotinamide p-toluenesulfonate], for which the “crystal form stability (XRPD)” value in data set [6] was “remained unchanged”. The “crystal form of the undissolved solid (XRPD)” value in [7] (FaSSIF and FeSSIF for 0.5 hours) is “changed”; in data set [7] (SGF for 24 hours), “changed”. The “solubility compared with the other form” value in [7] (FaSSIF and FeSSIF vehicles, 24 hours) was “higher solubility than that of the free base”. For the same molecule, in data set [7] (SGF), the “dependence of solubility on pH” value is listed as “affected by pH value”. Moreover, the “solubility in a solution with a higher pH value” in [7] (after 2 hours) was “higher solubility”. For the same molecule, the water absorption entry in data set [3] (0-80%RH) is reported as “about 0.39%”; in [3] (0-90%RH) it was “about 0.61%”. Also, in data set [3], the “crystal form after DVS test (XRPD)” value was “not changed”. The “hygroscopicity (DVS)” value in [3] was “slightly hygroscopic”.

As to `O=C(Nc1ccc(OC(F)(F)Cl)cc1)c1cnc(N2CC[C@@H](F)C2)c(-c2cnccn2)c1` [crystal form III of compound A, (R)-N-(4-(chlorodifluoromethoxy)phenyl)-6-(3-fluoropyrrolidin-1-yl)-5-(pyrazin-2-yl)nicotinamide], the “solid form / crystallinity” value in data set [4] (listed as crystal form III) is on record as “transformed into amorphous forms”.

With `O=C(Nc1ccc(OC(F)(F)Cl)cc1)c1cnc(N2CC[C@@H](F)C2)c(-c2cnccn2)c1` [compound A, (R)-N-(4-(chlorodifluoromethoxy)phenyl)-6-(3-fluoropyrrolidin-1-yl)-5-(pyrazin-2-yl)nicotinamide], the “dissolution of compound A in the formulation” value was “improved” in data set [9] (colloidal silica 200 (glidant) added) and “decreased” in data set [9] (increasing amount of sodium lauryl sulfate (solubilizer)).
